The PolyMetriX glass transition set
± gives the standard deviation of the reports.

Row | glass transition temperature [°C] | SMILES
1 | 208.00 | *Oc1c(C)cc(C(c2cc(C)c(OC(*)=O)c(C)c2)(C(F)(F)F)C(F)(F)F)cc1C (repeat unit)
2 | -48.00 | *ON(C(F)(F)F)C(F)(F)C(*)(F)SC(F)(F)F (repeat unit)
3 | 112.00 | *OC(COC(=O)c1c(F)c(F)c(-c2c(F)c(F)c(C(*)=O)c(F)c2F)c(F)c1F)COc1ccc(/N=N/c2ccc(C#N)cc2)cc1 (repeat unit)
4 | 308.00 | *c1ccc(-c2ccc(-c3ccc4nc(Oc5cc(-c6ccccc6)c6cc(*)ccc6n5)cc(-c5ccccc5)c4c3)cc2)cc1 (repeat unit)
5 | 228.50 | *Oc1c(Br)cc(C(C)(C)c2cc(Br)c(OC(*)=O)c(Br)c2)cc1Br (repeat unit)
6 | 133.00 | *CC(*)(C)C(=O)OCCCCCCCCCCCCCCC(=O)NC1OC(CO)C(OC2OC(CO)C(O)C(O)C2O)C(O)C1O (repeat unit)
7 | 80.00 | *CCC(=O)NCc1cc(C)c(CNC(=O)CCO*)cc1C (repeat unit)
8 | 266.00 | *c1ccc2c(c1)C(=O)N(c1ccc(C(c3ccc(C)c(N4C(=O)c5ccc(C(*)(C(F)(F)F)C(F)(F)F)cc5C4=O)c3)(C(F)(F)F)C(F)(F)F)cc1C)C2=O (repeat unit)
9 | 230.00 | *Nc1ccc(Cc2ccc(NC(=O)/C=C/c3ccc(/C=C/C(*)=O)cc3)cc2)cc1 (repeat unit)
10 | 424.00 | *c1ccc(C(=O)c2ccc(-n3c(=O)c4cc5c(=O)n(*)c(=O)c5cc4c3=O)cc2)cc1 (repeat unit)
11 | 289.00 | *C(=O)c1ccc2c(c1)C(=O)N(c1ccccc1C(=O)c1ccccc1N1C(=O)c3ccc(*)cc3C1=O)C2=O (repeat unit)
12 | 155.00 | *Oc1ccc(C(C)(C)c2cccc(C(C)(C)c3ccc(Oc4ccc(C(=O)Nc5cccc(NC(=O)c6ccc(*)cc6)c5)cc4)cc3)c2)cc1 (repeat unit)
13 | 16.00 | *CCCCCOC(=O)c1ccc(C(=O)O*)cc1 (repeat unit)
14 | 341.00 | *C(=O)Nc1ccc(NC(=O)c2ccc3c(c2)C(=O)N(c2cccc(N4C(=O)c5ccc(*)cc5C4=O)c2)C3=O)cc1 (repeat unit)
15 | 60.00 | *CC(*)(C)C(=O)OCCCCCOc1ccc(-c2ccc(C#N)cc2)cc1 (repeat unit)
16 | 276.00 | *c1ccc2c(c1)C(=O)N(c1c(C)cc(Cc3cc(C)c(N4C(=O)c5ccc(C(*)(C(F)(F)F)C(F)(F)F)cc5C4=O)c(C(C)C)c3)cc1C(C)C)C2=O (repeat unit)
17 | 229.00 | *Oc1c(C)cc(C2(c3cc(C)c(Oc4ccc(C(=O)c5cccc(C(=O)c6ccc(*)cc6)c5)cc4)c(C)c3)c3ccccc3-c3ccccc32)cc1C (repeat unit)
18 | 235.00 | *Oc1ccc(S(=O)(=O)c2ccc(Oc3ccc(/C=C4\CC/C(=C\c5ccc(*)cc5)C4=O)cc3)cc2)cc1 (repeat unit)
19 | 134.00 | *c1cc(/N=N/c2ccc(OC)cc2)cc(*)c1O (repeat unit)
20 | 91.00 | *CC(*)(C)C(=O)Oc1ccc(C(C)(C)C)cc1 (repeat unit)
21 | 184.00 | *OC1C(C)(C)C(OC(=O)c2ccc(C(*)=O)cc2)C1(C)C (repeat unit)
22 | 244.00 | *c1ccc2c(c1)C(=O)N(c1cccc(Oc3cccc(N4C(=O)c5ccc(C(*)(C(F)(F)F)C(F)(F)F)cc5C4=O)c3)c1)C2=O (repeat unit)
23 | -8.00 | *CCOC(=O)CCCCCCCCCCC(=O)OCCOC(=O)c1ccc(C(=O)O*)cc1 (repeat unit)
24 | -16.00 | *O[Si](C)(C)O[Si](C)(C)O[Si](C)(C)O[Si](C)(C)Oc1c(C)cc(-c2cc(C)c(*)c(C)c2)cc1C (repeat unit)
25 | 290.00 | *c1ccc(Oc2ccc(S(=O)(=O)c3ccc(Oc4ccc(-c5c6c(c(*)c7ccccc57)C(=O)N(c5ccccc5C(F)(F)F)C6=O)cc4)cc3)cc2)cc1 (repeat unit)
26 | 115.00 | *Oc1ccc(Oc2cccc(*)n2)c(-c2ccccc2)c1 (repeat unit)
27 | 45.00 | *Oc1ccc(CC(NC(=O)CCc2ccc(OC(=O)CC(C)CCC(*)=O)cc2)C(=O)OC(C)CC)cc1 (repeat unit)
28 | 240.00 | *C1CCC(CC2CCC(N3C(=O)c4ccc(Oc5ccc6c(c5)C(=O)N(*)C6=O)cc4C3=O)CC2)CC1 (repeat unit)

Row | glass transition temperature [°C] | SMILES
29 | 334.00 | *Oc1ccc(C(C)(C)c2ccc(Oc3ccc4c(=O)n5c6cc(Oc7ccc8c(c7)nc7c9ccc(*)c%10cccc(c(=O)n87)c%109)ccc6nc5c5cccc3c45)cc2)cc1 (repeat unit)
30 | 283.00 | *c1ccc(Oc2ccc3ccccc3c2-c2c(Oc3ccc(N4C(=O)c5ccc(NC(=O)Nc6cccc(NC(=O)Nc7ccc8c(c7)C(=O)N(*)C8=O)n6)cc5C4=O)cc3)ccc3ccccc23)cc1 (repeat unit)
31 | 150.00 | *CC(*)c1ccc(-c2cccc3nsnc23)cc1 (repeat unit)
32 | 353.50 | *c1ccc2c(c1)C(=O)N(c1cccc(N3C(=O)c4ccc(C(*)(C(F)(F)F)C(F)(F)F)cc4C3=O)c1C)C2=O (repeat unit)
33 | 369.2 ± 6.7 | *c1ccc(-c2ccc(-n3c(=O)c4cc5c(=O)n(*)c(=O)c5cc4c3=O)cc2C)c(C)c1 (repeat unit)
34 | 157.00 | *CCCC(C)(C)CNC(=O)c1ccc(C(=O)N*)cc1 (repeat unit)
35 | -30.00 | *CC(F)(F)C(F)(F)C(F)(F)COC(=O)c1cc(OCCCCC)cc(C(=O)O*)c1 (repeat unit)
36 | 158.00 | *Oc1ccc(C(=O)Nc2cc(SCCC#N)c(NC(=O)c3ccc(*)cc3)cc2SCCC#N)cc1 (repeat unit)
37 | 52.00 | *C(F)(F)C(=O)NCCCCCCNS(*)(=O)=O (repeat unit)
38 | 30.00 | *CC(CCCCCCCCCCCCCCCC)C1C(=O)N(CCCCCCCCCCCC)C(=O)C1* (repeat unit)
39 | 85.00 | *Oc1ccc(C(C)(C)c2ccc(OC(=O)c3ccc(CC(*)=O)cc3)cc2)cc1 (repeat unit)
40 | -26.00 | *CCCCCCCC(=O)OCC1(C)COC(*)OC1 (repeat unit)
41 | 140.00 | *CCOCCOc1cccc(NC(=O)c2ccc(C(=O)Nc3cccc(O*)c3)cc2)c1 (repeat unit)
42 | 35.00 | *Oc1ccc(CC(NC(=O)CCc2ccc(OC(=O)CC(C)CCC(*)=O)cc2)C(=O)OCCCC)cc1 (repeat unit)
43 | 49.00 | *CC(*)c1cc(Br)ccc1OCCCCC (repeat unit)
44 | 315.00 | *C(=O)Nc1ccc(Oc2ccc(C3(c4ccc(Oc5ccc(NC(=O)c6ccc7c(c6)C(=O)N(c6ccc(C)c(N8C(=O)c9ccc(*)cc9C8=O)c6)C7=O)cc5)cc4)NC(=O)c4ccccc43)cc2)cc1 (repeat unit)
45 | 155.00 | *c1ccc(Oc2ccc(C(c3ccc(Oc4ccc(-c5ccc(*)s5)cc4C(F)(F)F)cc3)(C(F)(F)F)C(F)(F)F)cc2)c(C(F)(F)F)c1 (repeat unit)
46 | 41.50 | *Oc1cc(CCCCCCCCC)cc(OC(=O)c2cccc(C(*)=O)c2)c1 (repeat unit)
47 | 252.00 | *Oc1c(OC)cc(-c2cc(OC)c(OC(=O)c3cccc(C(*)=O)c3)c(OC)c2)cc1OC (repeat unit)
48 | 136.00 | *CCCCCCCCCCC(=O)Nc1ccc(Cc2ccc(NC(=O)CCCCCCCCCCN3C(=O)c4ccc(C(=O)c5ccc6c(c5)C(=O)N(*)C6=O)cc4C3=O)cc2)cc1 (repeat unit)
49 | 100.00 | *CCN(*)C(=O)c1ccc(SC(F)(F)F)cc1 (repeat unit)
50 | 92.00 | *CC(*)(C)C(=O)OCCOC(=O)c1cc([N+](=O)[O-])cc([N+](=O)[O-])c1 (repeat unit)
51 | 152.00 | *CCN(CCOC(=O)c1ccc(C(=O)O*)c(OCCC)c1)c1ccc(/N=N/c2nc(C#N)c(C#N)[nH]2)cc1 (repeat unit)
52 | 221.00 | *c1cccc(Oc2cccc(Oc3cccc(-n4c(=O)c5cc6c(=O)n(*)c(=O)c6cc5c4=O)c3)c2)c1 (repeat unit)
53 | 254.00 ± 15 | *c1ccc(Oc2ccc(N3C(=O)c4cccc(Oc5ccc(Oc6cccc7c6C(=O)N(*)C7=O)cc5)c4C3=O)cc2)cc1 (repeat unit)
54 | 129.00 | *CCCCOc1ccc(OCCCCc2nnc(-c3ccc(-c4nnc(*)o4)cc3)o2)c(C)c1 (repeat unit)
55 | 230.00 | *c1cc(C(C)C)c(Oc2ccc(S(=O)(=O)c3ccc(Oc4cc(C)c(C5(*)OC(=O)c6ccccc65)cc4C(C)C)cc3)cc2)cc1C (repeat unit)

Row | SMILES | glass transition temperature [°C]
56 | *[Si](*)(C)CCC(F)(F)F (repeat unit) | -3.00
57 | *CC(*)OC(=O)C1CCCCC1 (repeat unit) | 66.00
58 | *OP(=O)(Oc1c(Cl)cccc1Cl)Oc1c(Cl)c(Cl)c(*)c(Cl)c1Cl (repeat unit) | 144.00
59 | *CCCCCCCCCCSSS* (repeat unit) | -70.00
60 | *CC(*)Cc1cccc(C)c1 (repeat unit) | 40.00
61 | *CC(*)(F)F (repeat unit) [Poly(vinylidene fluoride)] | -32.77 ± 2.3
62 | *[Se]c1c(Cl)c(Cl)c(*)c(Cl)c1Cl (repeat unit) | 104.00
63 | */C=C/C1CC(*)C(C#N)(CCCC)C1 (repeat unit) | 87.00
64 | *Cc1ccc(COP(=O)(/N=N/c2ccc(-c3ccc(/N=N/P(=O)(O*)OC)cc3)cc2)OC)cc1 (repeat unit) | 48.00
65 | *CC(*)C(=O)c1ccc(Br)cc1 (repeat unit) | 101.50
66 | *CCc1ccc(*)c2ccccc12 (repeat unit) | 160.00
67 | *CCNC(=O)c1ccc(O*)cc1 (repeat unit) | 150.00
